According to patent US20200253211A1, “PHOTODYNAMIC INHIBITION OF MICROBIAL PATHOGENS IN PLANTS” (SUNCOR ENERGY INC, priority 2017, published 2020):

How the values were obtained:
Type in all cases: cell-based
[1] = tested on: Alternaria solani mycelia; experiment: Photodynamic inhibition of Alternaria solani mycelia, percentage of dead samples after 7 days on agar
Description: (§1) In the experiments, Alternaria solani mycelia were grown in liquid medium for 24 hours. Small spheres of the mycelia (average diameter 2 mm) were incubated for 100 minutes with 100 μM of Mg-Chlorophyllin with 0 to 5 mM of Disodium-EDTA. Samples were illuminated with 395 nm (fluence 106.6 J cm^−2) for 120 mins and the radial growth of mycelial patches after 7 days on agar medium was measured. A sample was considered dead, if there was no growth observable after 7 days on agar plates.
as §1, with “Chlorin E6” for “100 μM of Mg-Chlorophyllin”, “or without” for “0 to”, “disodium-EDTA.” for “Disodium-EDTA.”
The protocol for the PDI of A. solani was as follows (for Experiment 2 and 5): • Grow A. solani on tomato-agar for some days. • Transfer parts of the growing mycelium form the edge of the A. solani (no conidia) to liquid tomato medium. • Incubate overnight at 26° C. under constant agitation. • Transfer the grown mycelia (spheres of mycelia, approximately 2 mm in diameter) to 24 well plates. • Add 500 microlitres of the PS to the well (PBS for the Co and light only controls). • Incubate under agitation for 100 minutes. • Illuminate under agitation for 120 minutes. • Transfer the treated mycelia to tomato-agar plates and incubate for one week at room temperature. • Evaluate by counting of dead samples.

Sclerotinia homoeocarpa = experiment: Radial growth of dollar spot fungus on amended Potato Dextrose Agar, dark vs light; settings: rate 31 μM
Xanthomonas axonopodis = Xanthomonas axonopodis count after photodynamic treatment in liquid medium; settings: Mg-Chlorophyllin alone; same protocol as Example 1
Description: Xanthomonas axonopodis are bacterial pathogens that cause citrus canker. Citrus canker is a highly contagious plant disease than can destroy an entire crop field. […] Positive results were obtained at several chlorophyllin concentrations and exposure times.
Xanthomonas were grown in liquid medium. Samples were incubated for 30 mins or 5 mins with Mg-Chlorophyllin and with Disodium-EDTA for 30 mins, and then illuminated with 395 nm (fluence 26.6 J cm−2) for 30 mins. CFU of the bacteria was counted on the plates.

E. Coli K-12 = experiment: E. Coli assay under LED lamps, colony count; settings: light
Description: Regarding the E. Coli assay tests in the above examples, the following procedure was used: • 1. E. Coli K-12 inoculated in 5 mL TSB and placed in a shaking incubator overnight. • 2. Dilute culture in 500 mL PBS (˜10̂8 CFU/mL) and placed in shaking incubator for 30 minutes at […]. • 3.15 mL samples created using 12 mL culture and a mixture of PBS buffer and sample compounds. • 4. Placed under LED lamps for 2 hours (40 W/m^2). • 5. Samples diluted to 10^−4 and culture controls diluted to 10^−5 for plating through series dilutions. • 6. 0.1 mL plated of each sample in triplicates on TSA base (10^−3 and 10^−4 for samples. 10^−4 and 10^−5 for controls). • 7. Incubated overnight at 37° C. • 8. Colonies counted next morning and recorded.

## O=C(O)CN(CCN(CC(=O)O)CC(=O)O)CC(=O)O [EDTA, disodium EDTA]
[1]; Table 2, EDTA 5 mM alone, in light
  dead %: 0%
[1]; Table 2, EDTA 5 mM alone, no light
  dead %: 0%
[1]; Table 2, EDTA 50 mM alone, in light
  dead %: 0%
[1]; Table 2, EDTA 50 mM alone, no light
  dead %: 0%
[1]; Table 2, EDTA 100 mM alone, in light
  dead %: 0%
[1]; Table 2, EDTA 100 mM alone, no light
  dead %: 11.1%
[1]; Table 2, EDTA 500 mM alone, in light
  dead %: 0%
[1]; Table 2, EDTA 500 mM alone, no light
  dead %: 11.1%
[1]; Table 5, light, 5 mM Na-EDTA alone
  dead %: 0%
[1]; Table 5, no light, 5 mM Na-EDTA alone
  dead %: 0%

## C=Cc1c(C)c2cc3nc(c(CC(=O)[O-])c4[n-]c(cc5nc(cc1[n-]2)C(C)=C5CC)c(C)c4C(=O)[O-])C(CCC(=O)[O-])C3C.[Mg+2].[Na+].[Na+].[Na+] (stereo not drawn) [Mg-Chlorophyllin, Mg-chlorophyllin]
[1]; Table 2, Mg-Chlorophyllin 100 μM without EDTA, in light
  dead %: 11.5%
Sclerotinia homoeocarpa; Table 7A, dark
  % Inhibition: 24.1%
  Mean Radial Growth: 11.2 mm
Sclerotinia homoeocarpa; Table 7B, light
  % Inhibition: 51.0%
  Mean Radial Growth: 6.6 mm
Sclerotinia homoeocarpa; Table 14A, dark
  % Inhibition: 32.5%
  Mean Radial Growth: 9.1 mm
Sclerotinia homoeocarpa; Table 14B, light
  % Inhibition: 59.2%
  Mean Radial Growth: 5.3 mm
Sclerotinia homoeocarpa; Table 15A, dark
  % Inhibition: 32.5%
  Mean Radial Growth: 9.1 mm
Sclerotinia homoeocarpa; Table 15B, light
  % Inhibition: 59.2%
  Mean Radial Growth: 5.3 mm
Xanthomonas axonopodis
  control of Xanthomonas axonopodis: little effect
E. Coli K-12; Table 10, 1 μM MgChln
  % Inactivation: 95.0%
  CFU/mL: 2.73E+05 CFU/mL
  LogCFU/mL: 5.44 LogCFU/mL
E. Coli K-12; Table 10, 10 μM MgChln
  % Inactivation: 97.6%
  CFU/mL: 1.30E+05 CFU/mL
  LogCFU/mL: 5.11 LogCFU/mL
E. Coli K-12; Table 11, 1 μM MgChln
  % Inactivation: 86.1%
  CFU/mL: 9.07E+05 CFU/mL
  LogCFU/mL: 5.96 LogCFU/mL
E. Coli K-12; Table 12, 1 μM MgChln
  % Inactivation: 91.3%
  CFU/mL: 6.13E+05 CFU/mL
  LogCFU/mL: 5.79 LogCFU/mL
